{"source": "patent US10336788B2", "about": "“Inhibition of cardiac fibrosis in myocardial infarction” (Moerae Matrix, Inc., priority 2014, dated 2019)", "key": {"[1]": {"test_system": "H9C2 cells", "assay": "LDH release assay in H9C2 cells (1% hypoxia or normoxia)", "format": "cell-based, rat", "details": "for LDH release: 1% hypoxia", "description": "(§1) H9C2 is a myoblast cell line derived from rat myocardium obtained from ATCC® (CRL-1446, ATCC, Manassas, Va.) and cultured according to the recommended protocols. Briefly, cells were maintained at 37° C. with 5% CO2 in DMEM supplemented with 10% fetal bovine serum and antibiotics (100 U/ml penicillin, […] streptomycin) and split at a ratio of 1:4 using 0.05% trypsin every 36 hours. HL-1 cells were obtained from Dr. William Claycomb and cultured according to the published protocols [Claycomb W C, Lanson N A, Jr., Stallworth B S, Egeland D B, Delcarpio J B, Bahinski A, et al. HL-1 cells: a cardiac muscle cell line that contracts and retains phenotypic characteristics of the adult cardiomyocyte. Proc. Natl Acad. Sci. USA. 1998; 95:2979-84; White S M, Constantin P E, Claycomb W C. Cardiac physiology at the cellular level: use of cultured HL-1 cardiomyocytes for studies of cardiac muscle cell structure and function. Am. J. Physiol. Heart Circul. Physiol. 2004; 286:H823-9]. […]\n(§2) Cells were rinsed in PMS and grown in DMEM (cat. #11966-025, Gibco) for 2 hours prior to initiating hypoxia (simulated ischemia). […] Three different time points were adopted for each of the three cell lines according to the severity of cell death under hypoxia determined by LDH release: for H9C2 cell line: 8 hr; 16 hr; 24 hr; for HL-1 cell line: 4 hr; 8 hr; 12 hr; for cardiac fibroblast cell line: 16 hr; 32 hr; 48 hr.\n(§3) Cell death was first determined using an LDH release assay (cat. #630117, Clontech), according to the manufacturer's instructions. […] Caspase 3/7 activity was next determined using a commercial Caspase 3/7 activity kit (Cat. #G8091, Promega, Madison, Wis. 53711) in a 384 well plate (Cat. #781903, Greiner bio-one) according to the manufacturer's instructions. […] The resulting cell lysates (25 μl, with 0.6 ug total protein) and Caspase-Glo 3/7 Reagent were added to each well in a 1:1 ratio and the luminescence was read (CLARIOstar, BMG LABTECH GmbH). […]"}, "[2]": {"test_system": "pharmacologically relevant receptors", "assay": "Cellular functional assays on pharmacologically relevant receptors", "format": "cell-based", "details": "data not shown"}, "[3]": {"test_system": "HL1 cells", "assay": "LDH release assay in HL1 cells (1% hypoxia or normoxia)", "format": "cell-based, mouse", "details": "for LDH release: 1% hypoxia", "description": "as §1, with “286:H823-9]. Briefly, cells were cultured in Claycomb medium (JRH Biosciences, USA) supplemented with 10% fetal bovine serum (JRH Biosciences), 2 mM L-glutamine (Gibco, Grand Island, N.Y.), 100 μM norepinephrine (Sigma, USA), 100 U/mL penicillin, and 100 μg/mL streptomycin (Gibco) in flasks precoated with fibronectin and gelatin (Sigma), then incubated at 37° C. in 5% CO2. Cells were split at a ratio of 1:4 using 0.05% trypsin every 48 hours. Primary cardiac fibroblasts were obtained from 2-4-day-old Sprague Dawley rats, according to previously described protocols (cat. #L K003300, Worthington Biochemical Corp., Lakewood, N.J.) [Toraason M, Luken M E, Breitenstein M, Krueger J A, Biagini R E. Comparative toxicity of allylamine and acrolein in cultured myocytes and fibroblasts from neonatal rat heart. Toxicology.” for “286:H823-9].”\nas §2, §3"}, "[4]": {"test_system": "40 non-kinase enzyme assays, including phosphatases and proteases", "assay": "Panel of 40 non-kinase enzyme assays", "format": "biochemical", "details": "100 μM; data not shown"}, "[5]": {"test_system": "mouse vein graft model", "details": "Muto et al. 2012; cited from earlier work"}, "[6]": {"test_system": "abdominal adhesions post-surgery", "details": "Ward et al. 2011; cited from earlier work"}, "[7]": {"test_system": "C57BL/6 mice", "assay": "Survival analysis (Kaplan-Meier) after permanent LAD ligation or daily peptide", "format": "in vivo, mouse", "description": "Nature Medicine. […] Nature. 2012; 485:593-8]. […] Proc Natl Acad Scie USA. […] Circulation Res. 2009; 105:80-8].\nSigmaPlot (Systat Software, Inc., San Jose, Calif.) was used to determine significant statistical differences using a Log-rank (Mantel-Cox) test to determine differences in survival or a Kruskal-Wallis one-way ANOVA for both in vivo and in vitro studies at each terminal time point in experiments run in parallel. If significance was reached (p<0.05), a post-hoc all pairwise Multiple Comparison Procedures (Tukey Test) was performed between each of the groups to determine significance. Significance was defined as p<0.05."}, "[8]": {"test_system": "HL1 cells", "assay": "Caspase 3/7 activity in HL1 cells challenged with 1% hypoxia", "format": "cell-based, mouse", "details": "100 μM, 12 hours", "description": "H9C2 is a myoblast cell line derived from rat myocardium obtained from ATCC® (CRL-1446, ATCC, Manassas, Va.) and cultured according to the recommended protocols. Briefly, cells were maintained at 37° C. with 5% CO2 in DMEM supplemented with 10% fetal bovine serum and antibiotics (100 U/ml penicillin, […] streptomycin) and split at a ratio of 1:4 using 0.05% trypsin every 36 hours. […]\nas §2, §3"}}, "note": "No end group written: not given here.", "data": [{"sequence": "YARAAARQARAKALARQLGVAA [MMI-0100]", "values": [{"measurement": "LDH release", "setting": "[1]; 100 μM only, 16 hours", "result": "enhanced"}, {"measurement": "LDH release", "setting": "[1]; 20 and 100 μM, 8 hours", "result": "significantly enhanced"}, {"measurement": "LDH release in normoxic conditions", "setting": "[1]; absence of hypoxia, 8 hours", "result": "did not enhance LDH release"}, {"measurement": "effect on pharmacologically relevant receptors in cellular functional assays", "setting": "[2]", "result": "no substantial effect"}, {"measurement": "LDH release", "setting": "[3]; 100 μM only, 8 hours", "result": "enhanced"}, {"measurement": "LDH release in normoxic conditions", "setting": "[3]; 100 μM, normoxia (FIG. 11B)", "result": "unexpectedly inhibited"}, {"measurement": "LDH release", "setting": "[3]; 20 and 100 μM, 4 hours", "result": "significantly enhanced"}, {"measurement": "LDH release in normoxic conditions", "setting": "[3]; absence of hypoxia, 4 hours", "result": "did not enhance LDH release"}, {"measurement": "interaction at non-kinase enzyme targets (significant if greater than 50% inhibition of activity)", "setting": "[4]", "result": "No significant interaction"}, {"measurement": "inflammation and fibrosis in intimal hyperplasia", "setting": "[5]", "result": "inhibits inflammation and fibrosis"}, {"measurement": "abdominal adhesions post-surgery", "setting": "[6]", "result": "inhibiting"}, {"measurement": "survival after AMI with or without MMI-0100 treatment", "setting": "[7]; AMI mice, daily intraperitoneal dosing, 14 days", "result": "no differences in survival"}, {"measurement": "effect on survival, MMI-0100 alone", "setting": "[7]; mice without AMI, daily MMI-0100 intraperitoneally vs PBS", "result": "did not have any effect"}, {"measurement": "caspase 3/7 activity", "setting": "[8]", "result": "inhibited"}]}]}
